The numbers were not newly measured in publication PMC9088800, “Expanded LUXendin Color Palette for GLP1R Detection and Visualization In Vitro and In Vivo” (JACS Au, 2022), which cites them from elsewhere.

The conditions of this series: phase III trials, combined with lifestyle interventions. From the text: The glucagon-like peptide-1 receptor (GLP1R) is a class B G protein-coupled receptor involved in the regulation of glucose homeostasis, food intake, and inflammation.[1],[2] As such, GLP1R agonist (GLP1RA) therapy has become a mainstay of type-2 diabetes treatment during the past decade, with a number of drugs on the market based upon stabilized analogues of glucagon-like peptide-1.[3] Most recently, phase III trials of the third-generation semaglutide have shown a ∼15% reduction in body weight when combined with lifestyle interventions,[4] leading to the approval of GLP1RAs as the first nonsu ...

As to semaglutide, the “Reduction in body weight” value is reported as roughly 15%.
